The numbers were not newly measured in patent publication US20160324770A1, “INTRATHECAL ADMINISTRATION, PREFERABLY INTRAVENTRICULAR, OF MTOR INHIBITORS FOR THE THERAPY OF SOME NEURODEGENERATIVE, NEUROINFLAMMATORY AND NEURO-ONCOLOGIC DISEASES” (priority 2012, published 2016), which cites them from elsewhere.

One may read the half-life as the time needed for the level to fall by half in the phase considered.

Structures are written as SMILES.

For the data set the following is noted: cited from earlier work.

Regarding `CO[C@H]1C[C@@H]2CC[C@@H](C)[C@@](O)(O2)C(=O)C(=O)N2CCCC[C@H]2C(=O)O[C@H]([C@H](C)C[C@@H]2CC[C@@H](O)[C@H](OC)C2)CC(=O)[C@H](C)/C=C(\C)[C@@H](O)[C@@H](OC)C(=O)[C@H](C)C[C@H](C)/C=C/C=C/C=C/1C` [rapamycin], the “half-life compared to everolimus” value is reported as “more than double that time”. Further, the half-life (according to the FDA) was 62 h.
